Results from patent US9556165B2 (priority 2012, dated 2017).
Values after ≈ are worked out from the molar mass of the structure shown. Read-outs that look alike come from different tables or passages of the source.

What was measured:
Format in all cases: cell-based
[1] = tested on: P. aeruginosa 2297 (AmpC wt); assay: MIC determination, broth microdilution (CLSI); conditions: for MIC: Pseudomonas aeruginosa, strain 7
C. freundii K21/3034 = assay: MIC determination, broth microdilution (CLSI)
M. morganii 126/3048 = assay: MIC determination, broth microdilution (CLSI); conditions: for MIC: Morganella morganii, 126/3048, strain 5
C. perfringens DSM756 = assay: microbe, parasite or virus in culture; conditions: broth microdilution; for MIC: Clostridium perfringens, DSM756, read-out: MIC strain 16 (C. perfringens DSM756), strain 16
E. cloacae 34654 = assay: MIC determination, broth microdilution (CLSI)
P. aeruginosa PAO1 = assay: MIC determination, broth microdilution (CLSI)
E. coli J62 = assay: MIC determination, broth microdilution (CLSI); conditions: broth microdilution
A. baumannii ATCC15308 = assay: MIC determination, broth microdilution (CLSI)
S. aureus 133 = assay: MIC determination, broth microdilution (CLSI)
B. fragilis 6688 = assay: MIC determination, broth microdilution (CLSI); conditions: broth microdilution; for MIC: Bacteroides fragilis, 6688, strain 15, read-out: MIC strain 15 (B. fragilis 6688)
S. pneumoniae 113 = assay: MIC determination, broth microdilution (CLSI); conditions: broth microdilution; for MIC: Streptococcus pneumoniae, 113, strain 13, read-out: MIC strain 13 (S. pneumoniae 113)
E. coli J62-TEM-3 = assay: MIC determination, broth microdilution (CLSI); conditions: broth microdilution; for MIC: Escherichia coli, J62TEM3, read-out: MIC strain 18 (E. coli J62-TEM-3), strain 18
E. coli ATCC25922 = assay: MIC determination, broth microdilution (CLSI)
K. pneumoniae 60 = assay: MIC determination, broth microdilution (CLSI)
S. maltophilia ICB7569 = assay: MIC determination, broth microdilution (CLSI); conditions: for MIC: Stenotrophomonas maltophilia, ICB7569, strain 10
[2] = tested on: P. aeruginosa 2297-con (AmpC derepressed); assay: MIC determination, broth microdilution (CLSI); conditions: for MIC: Pseudomonas aeruginosa, read-out: strain 8 MIC, strain 8
H. influenzae ATCC 49247 = assay: MIC determination, broth microdilution (CLSI); conditions: broth microdilution; for MIC: Haemophilus influenzae, ATCC49247, strain 12, read-out: MIC strain 12 (H. influenzae ATCC 49247)
Bacteria = assay: MIC determination in combination with β-lactamase inhibitors (constant 4 μg/mL)

Compound	MIC [1]	strain 4 MIC (C. freundii K21/3034)	strain 3 MIC (E. cloacae 34654)	strain 6 MIC (P. aeruginosa PAO1)	MIC strain 17 (E. coli J62) (E. coli J62)	strain 9 MIC (A. baumannii ATCC15308)	strain 1 MIC (E. coli ATCC25922)	strain 2 MIC (K. pneumoniae 60)	MIC (S. maltophilia ICB7569)	MIC [2]	MIC strain 19 (E. coli J62-TEM-3 + 4 μg/mL clavulanic acid) (Bacteria)	MIC strain 20 (E. coli J62-TEM-3 + 4 μg/mL sulbactam) (Bacteria)	MIC strain 21 (E. coli J62-TEM-3 + 4 μg/mL tazobactam) (Bacteria)	MIC (M. morganii 126/3048)	MIC (C. perfringens DSM756)	MIC (B. fragilis 6688)	MIC (S. pneumoniae 113)	MIC (E. coli J62-TEM-3)	MIC (H. influenzae ATCC 49247)	further results
CC1(C)[C@H](NC(=O)/C(=N\OCC(Oc2ccc(C(=N)N)cc2)C(=O)O)c2csc(N)n2)C(=O)N1OS(=O)(=O)O (single isomer, unassigned) [Example 87B]	32 µg/mL (≈ 54.6 µM)	0.5 µg/mL	1 µg/mL	16 µg/mL	1 µg/mL (≈ 1.71 µM)	16 µg/mL	0.5 µg/mL	0.5 µg/mL	16 µg/mL (≈ 27.3 µM)	32 µg/mL (≈ 54.6 µM)	0.5 µg/mL	1 µg/mL	2 µg/mL	–	–	–	–	–	–	strain 5 MIC (M. morganii 126/3048; strain 5): 0.25 µg/mL; MIC strain 16 (C. perfringens DSM756) (C. perfringens DSM756; strain 16): 16 µg/mL (≈ 27.3 µM); strain 11 MIC (S. aureus 133; strain 11): ≦0.063 mg/L; MIC strain 15 (B. fragilis 6688) (B. fragilis 6688; strain 15): 16 µg/mL (≈ 27.3 µM); MIC strain 13 (S. pneumoniae 113) (S. pneumoniae 113; strain 13): 1 µg/mL (≈ 1.71 µM); MIC strain 18 (E. coli J62-TEM-3) (E. coli J62-TEM-3; strain 18): 32 µg/mL (≈ 54.6 µM); MIC strain 12 (H. influenzae ATCC 49247) (H. influenzae ATCC 49247; strain 12): 0.125 µg/mL (≈ 0.213 µM)
CC1(C)[C@H](NC(=O)/C(=N\O[C@@H](COc2ccc(C(=N)NC3CC3N)cc2)C(=O)O)c2csc(N)n2)C(=O)N1OS(=O)(=O)O (single isomer, unassigned) [Example 100A]	–	0.125 µg/mL	0.125 µg/mL	2 µg/mL	0.25 µg/mL (≈ 0.39 µM)	8 µg/mL	0.125 µg/mL	0.25 µg/mL	–	–	0.125 µg/mL	0.125 µg/mL	0.25 µg/mL	≤ 0.063 µg/mL	2 µg/mL (≈ 3.12 µM)	8 µg/mL (≈ 12.5 µM)	0.5 µg/mL (≈ 0.78 µM)	32 µg/mL (≈ 49.9 µM)	≤ 0.063 µg/mL	strain 7 MIC [1]: 4 µg/mL; MIC (S. aureus 133; Staphylococcus aureus, 133, strain 11, read-out: strain 11 MIC): ≤ 0.063 µg/mL; strain 10 MIC (S. maltophilia ICB7569; strain 10): 8 µg/mL; strain 8 MIC ([2]; strain 8): 4 µg/mL
CC1(C)[C@H](NC(=O)/C(=N\OC(COc2ccc(C(=N)NC3CCCNC3)cc2)C(=O)O)c2csc(N)n2)C(=O)N1OS(=O)(=O)O (stereo in doubt) [Example 89, (2R)-2-({[(1Z)-1-(2-Amino-1,3-thiazol-4-yl)-2-{[(3S)-2,2-dimethyl-4-oxo-1-(sulfooxy)-azetidin-3-yl]amino}-2-oxoethylidene]amino}oxy)-3-(4-{N-[(3R)-piperidin-3-yl]carbamimidoyl}phenoxy)propanoic acid]	1 µg/mL (≈ 1.5 µM)	–	–	–	–	–	–	–	4 µg/mL (≈ 5.98 µM)	1 µg/mL (≈ 1.5 µM)	≦0.063 mg/L	≦0.063 mg/L	0.125 µg/mL	≤ 0.063 µg/mL	1 µg/mL (≈ 1.5 µM)	8 µg/mL (≈ 12 µM)	0.5 µg/mL (≈ 0.748 µM)	4 µg/mL (≈ 5.98 µM)	≤ 0.063 µg/mL	MIC (C. freundii K21/3034; Citrobacter freundii, K21/3034, strain 4): 0.125 µg/mL (≈ 0.187 µM); MIC (E. cloacae 34654; Enterobacter cloacae, 34654, strain 3): 0.125 µg/mL (≈ 0.187 µM); MIC (P. aeruginosa PAO1; Pseudomonas aeruginosa, PAO1, strain 6): 1 µg/mL (≈ 1.5 µM); MIC (E. coli J62; Escherichia coli, J62, strain 17, read-out: MIC strain 17 (E. coli J62)): 0.125 µg/mL (≈ 0.187 µM); MIC (A. baumannii ATCC15308; Acinetobacter baumannii, ATCC15308, strain 9): 1 µg/mL (≈ 1.5 µM); MIC (S. aureus 133; Staphylococcus aureus, 133, strain 14, broth microdilution, read-out: MIC strain 14 (S. aureus 133)): 32 µg/mL (≈ 47.9 µM); MIC (E. coli ATCC25922; Escherichia coli, ATCC25922, strain 1): 0.125 µg/mL (≈ 0.187 µM); MIC (K. pneumoniae 60; Klebsiella pneumoniae, 60, strain 2): 0.25 µg/mL (≈ 0.374 µM)
